Measurements: patent publication US20170369492A1 (Takeda Pharmaceutical Company Limited, priority 2014, published 2017)

Target: T1, human GPR43 (Homo sapiens, UniProt O15552)
T1 construct: expressed in transfected cells
T1 sequence (O15552 1-330): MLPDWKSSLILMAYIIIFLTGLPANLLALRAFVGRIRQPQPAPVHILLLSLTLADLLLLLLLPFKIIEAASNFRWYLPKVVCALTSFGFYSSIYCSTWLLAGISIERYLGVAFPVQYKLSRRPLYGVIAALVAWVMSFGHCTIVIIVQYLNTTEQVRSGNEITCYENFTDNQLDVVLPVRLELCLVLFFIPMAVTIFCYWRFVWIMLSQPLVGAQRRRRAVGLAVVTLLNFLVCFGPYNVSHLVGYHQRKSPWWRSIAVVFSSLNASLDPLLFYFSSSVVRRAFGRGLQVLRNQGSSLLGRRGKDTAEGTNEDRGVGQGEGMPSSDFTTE
Assay: Ca-Flux Functional Assay: Determination of Agonist/Positive Allosteric Modulator (PAM) Activity
Assay type: cell-based
Conditions: CHO-K1 Gα16 cells stably expressing human GPR43; compound added in the presence of EC20 sodium acetate; intracellular Ca2+ by FLIPR; agonist/PAM activity not distinguished
Description: Ca-Flux Functional Assay: Determination of Agonist/Positive Allosteric Modulator (PAM) Activity
GPR43 agonist/PAM activity was determined by measuring changes in intracellular calcium levels using a Ca^2+ sensitive fluorescent dye. The changes in fluorescent signal were monitored by FLIPR (manufactured by Molecular Devices). GPR43 mediated increases in intracellular Ca^2+ concentration were readily detected upon activation with sodium acetate. Prior to the assay (24 hours), CHO-K1 Gα16 cells stably expressing human GPR43 were-seeded in cell culture medium in black, clear-bottom 384-well plates (Corning Inc) and grown overnight at 37° C., 5% CO2. On the day of the assay, cell culture media was removed and cells were loaded with Calcium 5 Dye (Molecular Devices) diluted in HBSS containing 25 mM HEPES, 2.5 mM Probenecid, 0.1% BSA for 1 hour at 37° C., 5% CO2. 10 point half log concentration response curves of sodium acetate from 10 mM were conducted prior to the testing of compounds to calculate the sodium acetate concentration that produces 20% of the maximal response (EC20). Test compounds (at to point half log concentration response curves from 10 μM) were added in the presence of sodium acetate to achieve a final concentration that produces approximately 20% maximal response as calculated from the previous experiment. The changes in fluorescent signal were monitored by FLIPR upon addition of the compound/EC20 sodium acetate mix. The EC50 values were determined from ten point concentration response curves. Curves were generated using the average of two wells for each data point.
The above assay detects both GPR43 receptor agonists and positive allosteric modulators of the GPR43 receptor, without distinguishing between the two. Activity in either regard is useful in the treatment of conditions associated with GPR43 receptor activity.

SMILES	EC50 [nM]
CC(C)Oc1ccc(S(=O)(=O)c2c(N)n(C3CCCCC3)c3nccnc23)cc1 [Example 7, 5-cyclohexyl-7-{[4-(propan-2-yloxy)benzene]sulfonyl}-5H-pyrrolo[2,3-b]pyrazin-6-amine]	172
Nc1c(S(=O)(=O)c2ccccc2)c2cncnc2n1C1CCCCC1 [Example 16]	337
Nc1c(S(=O)(=O)NCc2ccccc2)c2nccnc2n1C1CCCCC1 [Example 70, 6-amino-N-benzyl-5-cyclohexyl-5H-pyrrolo[2,3-b]pyrazine-7-sulfonamide]	3280
CN(C1CCCCC1)S(=O)(=O)c1c(N)n(C2CCCCC2)c2nccnc12 [Example 71, 6-amino-N,5-dicyclohexyl-N-methyl-5H-pyrrolo[2,3-b]pyrazine-7-sulfonamide]	8380
CN(C)c1ncnc2c(S(=O)(=O)c3ccccc3)c(N)n(C3CCCCC3)c12 [Example 34, 7-(benzenesulfonyl)-5-cyclohexyl-4-N,4-N-dimethyl-5H-pyrrolo[3,2-d]pyrimidine-4,6-diamine]	5980
N#Cc1ncnc2c(S(=O)(=O)c3ccccc3)c(N)n(C3CCCCC3)c12 [Example 37, 6-amino-7-(benzenesulfonyl)-5-cyclohexyl-5H-pyrrolo[3,2-d]pyrimidine-4-carbonitrile]	468
Nc1c(S(=O)(=O)c2ccccc2)c2nccnc2n1C1CCC(F)(F)CC1 [Example 49, 5-(4,4-difluoro-cyclohexyl)-7-(phenylsulfonyl)-5H-pyrrolo[2,3-b]pyrazin-6-amine]	211
CC1(C)CC1Cn1c(N)c(S(=O)(=O)c2ccccc2)c2nccnc21 (stereo not drawn) [Example 56, 5-((2,2-dimethylcyclopropyl)methyl)-7-(phenylsulfonyl)-5H-pyrrolo[2,3-b]pyrazin-6-amine]	1300
Nc1c(S(=O)(=O)c2ccccc2)c2nccnc2n1CC1CCCC1 [Example 54, 5-(cyclopentylmethyl)-7-(phenylsulfonyl)-5H-pyrrolo[2,3-b]pyrazin-6-amine]	1540
Nc1c(S(=O)(=O)c2ccccc2)c2cccnc2n1C1CCCCC1 [Example 15, 3-(benzenesulfonyl)-1-cyclohexyl-1H-pyrrolo[2,3-b]pyridin-2-amine]	381
Nc1c(S(=O)(=O)c2ccccc2)c2nccnc2n1C1CCCOC1 (stereo not drawn) [Example 51, 7-(phenylsulfonyl)-5-(tetrahydro-2H-pyran-3-yl)-5H-pyrrolo[2,3-b]pyrazin-6-amine]	6000
Nc1c(S(=O)(=O)c2ccccc2)c2ncccc2n1C1CCCCC1 [Example 9, 3-(benzenesulfonyl)-1-cyclohexyl-1H-[3,2-b]pyridin-2-amine]	1250
COC(=O)Nc1c(S(=O)(=O)c2ccccc2)c2nccnc2n1C1CCCCC1 [Example 24, methyl N-[7-(benzenesulfonyl)-5-cyclohexyl-5H-pyrrolo[2,3-b]pyrazin-6-yl]carbamate]	2590
Nc1c(S(=O)(=O)N2Cc3ccccc3C2)c2nccnc2n1C1CCCCC1 [Example 97, 5-cyclohexyl-7-(2,3-dihydro-1H-isoindole-2-sulfonyl)-5H-pyrrolo[2,3-b]pyrazin-6-amine]	173
COc1ccc(S(=O)(=O)c2c(N)n(C3CCC(F)(F)CC3)c3cccnc23)cc1 [Example 22, 1-(4,4-difluorocyclohexyl)-3-[(4-methoxybenzene)sulfonyl]-1H-pyrrolo[3,2-b]pyridin-2-amine]	167
Nc1c(S(=O)(=O)c2ccccc2F)c2nccnc2n1C1CCCCC1 [Example 111, 5-cyclohexyl-7-[(2-fluorobenzene)sulfonyl]-5H-pyrrolo[2,3-b]pyrazin-6-amine]	209
Nc1c(S(=O)(=O)c2ccccc2)c2ncnc(OCc3ccccc3)c2n1C1CCC(F)(F)CC1 [Example 30, 7-(benzenesulfonyl)-4-(benzyloxy)-5-(4,4-difluorocyclohexyl)-5H-pyrrolo[3,2-d]pyrimidin-6-amine]	199
Nc1c(S(=O)(=O)c2ccccc2)c2ncnc(Cl)c2n1C1CCC(F)(F)CC1 [Example 32, 7-(benzenesulfonyl)-4-chloro-5-(4,4-difluorocyclohexyl)-5H-pyrrolo[3,2-d]pyrimidin-6-amine]	689
Cc1ccc(S(=O)(=O)c2c(N)n(C3CCCC3)c3cccnc23)cc1 [Example 10, 1-cyclopentyl-3-[(4-methylbenzene)sulfonyl]-1H-pyrrolo[3,2-b]pyridin-2-amine]	2300
COc1ccc(S(=O)(=O)c2c(N)n(C3CCC(F)(F)CC3)c3ncccc23)cc1 [Example 14, 1-(4,4-difluorocyclohexyl)-3-[(4-methoxybenzene)sulfonyl]-1H-pyrrolo[2,3-b]pyridin-2-amine]	138
COc1ncnc2c(S(=O)(=O)c3ccccc3)c(N)n(C3CCCCC3)c12 [Example 26, 7-(benzenesulfonyl)-5-cyclohexyl-4-methoxy-5H-pyrrolo[3,2-d]pyrimidin-6-amine]	79
Nc1c(S(=O)(=O)NCCc2ccccc2)c2nccnc2n1C1CCCCC1 [Example 84, 6-amino-5-cyclohexyl-N-(2-phenylethyl)-5H-pyrrolo[2,3-b]pyrazine-7-sulfonamide]	3290

Further lines, results first:

EC50 [nM]	SMILES
2240	Nc1c(S(=O)(=O)N2CCCC2)c2nccnc2n1C1CCCCC1 [Example 58, 5-cyclohexyl-7-(pyrrolidin-1-ylsulfonyl)-5H-pyrrolo[2,3-b]pyrazin-6-amine]
3150	COCC1CCN(S(=O)(=O)c2c(N)n(C3CCCCC3)c3nccnc23)C1 (stereo not drawn) [Example 88, 5-cyclohexyl-7-[3-(methoxyrnethyl)pyrrolidine-1-sulfonyl]-5H-pyrrolo[2,3-b]pyrazin-6-amine]
931	Nc1c(S(=O)(=O)N2CCC(c3ccccc3)CC2)c2nccnc2n1C1CCCCC1 [Example 83, 5-cyclohexyl-7-(4-phenylpiperidine-1-sulfonyl)-5H-pyrrolo[2,3-b]pyrazin-6-amine]
830	CC1CCN(S(=O)(=O)c2c(N)n(C3CCCCC3)c3nccnc23)C1 (stereo not drawn) [Example 67, 5-cyclohexyl-7-((3-methylpyrrolidin-1-yl)sulfonyl)-5H-pyrrolo[2,3-b]pyrazin-6-amine]
647	Nc1c(S(=O)(=O)N2CCN(CC(F)(F)F)CC2)c2nccnc2n1C1CCCCC1 [Example 105, 5-cyclohexyl-7-[4-(2,2,2-trifluoroethyl)-piperazine-1-sulfonyl]-5H-pyrrolo[2,3-b]pyrazin-6-amine]
308	Nc1c(S(=O)(=O)N2CCc3ccccc3C2)c2nccnc2n1C1CCCCC1 [Example 94, 5-cyclohexyl-7-(1,2,3,4-tetrahydroisoquinoline-2-sulfonyl)-5H-pyrrolo[2,3-b]pyrazin-6-amine]
1720	Nc1c(S(=O)(=O)N2CCC(c3ccccc3)C2)c2nccnc2n1C1CCCCC1 (stereo not drawn) [Example 86, 5-cyclohexyl-7-(3-phenylpyrrolidine-1-sulfonyl)-5H-pyrrolo[2,3-b]pyrazin-6-amine]
258	CC1CCCN(S(=O)(=O)c2c(N)n(C3CCCCC3)c3nccnc23)C1 (stereo not drawn) [Example 102, 5-cyclohexyl-7-(3-methylpiperidine-1-sulfonyl)-5H-pyrrolo[2,3-b]pyrazin-6-amine]
1800	Nc1c(S(=O)(=O)N2CCCOCC2)c2nccnc2n1C1CCCCC1 [Example 72, 5-cyclohexyl-7-(1,4-oxazepane-4-sulfonyl)-5H-pyrrolo[2,3-b]pyrazin-6-amine]
440	CC1(C)CCCN(S(=O)(=O)c2c(N)n(C3CCCCC3)c3nccnc23)C1 [Example 92, 5-cyclohexyl-7-(3,3-dimethylpiperidine-1-sulfonyl)-5H-pyrrolo[2,3-b]pyrazin-6-amine]
488	COC1CCN(S(=O)(=O)c2c(N)n(C3CCCCC3)c3nccnc23)CC1 [Example 73, 5-cyclohexyl-7-(4-methoxypiperidine-1-sulfonyl)-5H-pyrrolo[2,3-b]pyrazin-6-amine]
1470	CC1CCCN1S(=O)(=O)c1c(N)n(C2CCCCC2)c2nccnc12 (stereo not drawn) [Example 68, 5-cyclohexyl-7-((2-methylpyrrolidin-1-yl)sulfonyl)-5H-pyrrolo[2,3-b]pyrazin-6-amine]
2900	Nc1c(S(=O)(=O)C2CC2)c2nccnc2n1C1CCCCC1 [Example 109, 5-cyclohexyl-7-(cyclopropanesulfonyl)-5H-pyrrolo[2,3-b]pyrazin-6-amine]
210	CCOC1CCN(S(=O)(=O)c2c(N)n(C3CCCCC3)c3nccnc23)CC1 [Example 65, 5-cyclohexyl-7-((4-ethoxypiperidin-1-yl)sulfonyl)-5H-pyrrolo[2,3-b]pyrazin-6-amine]
